Reference: ChEMBL document CHEMBL5370525, “Antibiotics with novel mode of action as new weapons to fight antimicrobial resistance” (Eur J Med Chem, 2023)
pKi: −log10 of the molar value. ≈ marks a conversion by molar mass, not a printed value.

Columns and labels:
Mycoplasma genitalium = experiment: Antibacterial activity against Mycoplasma genitalium assessed as inhibition of bacterial growth; assay type: functional; conditions: Mycoplasmoides genitalium
Neisseria gonorrhoeae = experiment: Antibacterial activity against Neisseria gonorrhoeae ATCC 49226 assessed as inhibition of bacterial growth by agar dilution method; assay type: functional
Chlamydia trachomatis = experiment: Antibacterial activity against Chlamydia trachomatis assessed as inhibition of bacterial growth; assay type: functional
Clostridioides difficile [1] = experiment: Antibacterial activity against Clostridium difficile clinical isolates assessed as inhibition of bacterial growth; assay type: functional
Clostridioides difficile [2] = experiment: Antibacterial activity against Clostridium difficile clinical isolates assessed as inhibition of bacterial growth incubated for 48 hrs by CLSI-based assay; assay type: functional
[3] = Binding affinity to recombinant Clostridium difficile 630 DNA polymerase IIIC expressed in Escherichia coli Rosetta DE3pLysS cells assessed as inhibition constant incubated for 20 mins; design: species or system Clostridioides difficile 630
[4] = Drug absorption in Syrian hamster infected with Clostridioides difficile at 75 mg/kg, po by LC-MS analysis; assay type: ADME, organism-based, Mesocricetus auratus; conditions: in vivo, read-out: Drug absorption
[5] = Volume of distribution at steady state in BALB/c mouse at 24 mg/kg, iv by LC/MS-MS analysis; assay type: ADME, organism-based; conditions: in vivo, read-out: Vdss
Staphylococcus aureus [6] = experiment: Antibacterial activity against Linezolid non-susceptible Staphylococcus aureus clinical isolate assessed as inhibition of bacterial growth by CLSI-based broth microdilution method; assay type: functional
[7] = Oral bioavailability in BALB/c mouse at 32 mg/kg by LC/MS-MS analysis; assay type: ADME, organism-based; conditions: in vivo
Staphylococcus aureus [8] = experiment: Antibacterial activity against methicillin-resistant Staphylococcus aureus ATCC 33591 infected in mouse assessed as log reduction in bacterial CFU in thigh 120 mg/kg, po measured after 24 hrs; assay type: functional
Staphylococcus aureus [9] = experiment: Antibacterial activity against Vancomycin-resistant Staphylococcus aureus clinical isolate assessed as inhibition of bacterial growth by CLSI-based broth microdilution method; assay type: functional
HeLa = experiment: Cytotoxicity against human HeLa cells assessed as inhibition of cell growth by MTT assay; assay type: functional, cell-based
[10] = Cytotoxicity against MDCK cells assessed as inhibition of cell growth by MTT assay; assay type: toxicity, cell-based, Canis lupus familiaris; conditions: dog
Staphylococcus aureus [11] = experiment: Antibacterial activity against Vancomycin-intermediate Staphylococcus aureus clinical isolate assessed as inhibition of bacterial growth by CLSI-based broth microdilution method; assay type: functional
Staphylococcus aureus [12] = experiment: Antibacterial activity against Daptomycin non-susceptible Staphylococcus aureus clinical isolate assessed as inhibition of bacterial growth by CLSI-based broth microdilution method; assay type: functional
Staphylococcus aureus [13] = experiment: Antibacterial activity against Meticillin-Resistant Staphylococcus aureus clinical isolate assessed as inhibition of bacterial growth by CLSI-based broth microdilution method; assay type: functional
[14] = Toxicity in Syrian hamster infected with clindamycin resistant Clostridium difficile ATCC 43596 assessed as survival rate at 0.5 mg/kg, po administered twice a day and measured after 33 days; assay type: organism-based, Mesocricetus auratus; conditions: in vivo, 792 h, time 33 day
[15] = Toxicity in Syrian hamster infected with clindamycin resistant Clostridium difficile ATCC 43596 assessed as animal survival at 5 mg/kg, po administered twice a day and measured after 25 days; assay type: organism-based, Mesocricetus auratus; conditions: in vivo, 600 h, time 25 day
[16] = Toxicity in Syrian hamster infected with clindamycin resistant Clostridium difficile ATCC 43596 assessed as survival rate at 5 mg/kg, po administered twice a day and measured after 33 days; assay type: organism-based, Mesocricetus auratus; conditions: in vivo, 792 h, time 33 day
Clostridioides difficile [17] = experiment: Antibacterial activity against Clostridium difficile clinical isolates assessed as inhibition of bacterial growth incubated for 44 hrs by CLSI-based broth microdilution assay; assay type: functional

C[C@@H]1CN2c3c(cc4c(N5C(=O)OC[C@@H]5C)noc4c3F)CC3(C(=O)NC(=O)NC3=O)[C@H]2[C@H](C)O1 [ZOLIFLODACIN]
MIC (Mycoplasma genitalium): < 1 µg/mL | MIC90 (Neisseria gonorrhoeae): 0.125 µg/mL (≈ 0.256 µM) | MIC (Chlamydia trachomatis): 0.5 µg/mL (≈ 1.03 µM)

Cc1ncc([N+](=O)[O-])n1CCO [METRONIDAZOLE]
MIC (Clostridioides difficile [1]): 0.15 µg/mL (≈ 0.876 µM) | MIC50 (Clostridioides difficile [2]): 1 µg/mL (≈ 5.84 µM)

O=c1[nH]c(NCc2ccc(Cl)c(Cl)c2)nc2ncn(CCN3CCOCC3)c12 [IBEZAPOLSTAT]
pKi [3]: 6.49 | Fa [4]: 5% | MIC (Clostridioides difficile [1]): 1 µg/mL (≈ 2.36 µM) | MIC50 (Clostridioides difficile [2]): 2 µg/mL (≈ 4.72 µM)

CN1CCC(C(=O)NC(=O)c2c(F)ccc(OCc3nc4cc(C(F)(F)F)cnc4s3)c2F)CC1
Vd [5]: 2.02 L/kg | MIC (Staphylococcus aureus [6]): 1 µg/mL (≈ 1.94 µM) | bioavailability [7]: 1% | log(activity) (Staphylococcus aureus [8]): 2 | MIC (Staphylococcus aureus [9]): 1 µg/mL (≈ 1.94 µM) | IC50 (HeLa): > 120 µg/mL | IC50 [10]: > 120 µg/mL | MIC (Staphylococcus aureus [11]): 1 µg/mL (≈ 1.94 µM) | MIC (Staphylococcus aureus [12]): 1 µg/mL (≈ 1.94 µM) | MIC (Staphylococcus aureus [13]): 1 µg/mL (≈ 1.94 µM)

Cl.Cl.O=c1cc(NCCCN[C@@H]2CCOc3c(Br)cc(Br)cc32)[nH]c2ccsc12
Survival [14]: 62% | Activity [15]: Toxic | Survival [16]: 75%

CN[C@H](CC(C)C)C(=O)N[C@H]1C(=O)N[C@@H](CC(N)=O)C(=O)N[C@H]2C(=O)N[C@H]3C(=O)N[C@H](C(=O)N[C@H](C(=O)O)c4cc(O)cc(O)c4-c4cc3ccc4O)[C@H](O)c3ccc(c(Cl)c3)Oc3cc2cc(c3O[C@@H]2O[C@H](CO)[C@@H](O)[C@H](O)[C@H]2O[C@H]2C[C@](C)(N)[C@H](O)[C@H](C)O2)Oc2ccc(cc2Cl)[C@H]1O [VANCOMYCIN]
MIC (Clostridioides difficile [17]): 0.25 µg/mL (≈ 0.173 µM) | MIC (Clostridioides difficile [1]): 0.25 µg/mL (≈ 0.173 µM) | MIC50 (Clostridioides difficile [2]): 1 µg/mL (≈ 0.69 µM)
